Test results from patent US10583171B2, “NMDAR antagonists for the treatment of diseases associated with angiogenesis” (INSERM (Institut National de la Sante et de la Recherche …, priority 2015, dated 2020).

Assays:
Assay type in all cases: cell-based, human
hPMVEC [1] = assay: In vitro angiogenesis Matrigel assay with hPMVEC; conditions: 4 hours, 100 μM (+)-MK-801 maleate or 50 μM DAP-V (FIG. 1g, FIG. 2f)
Method: Matrigel assays were performed on μ-slide angiogenesis (IBIDI, Martinsried, Germany). 100 μL of phenol-red free matrigel matrix (BD, Franklin lakes, N.J., USA) were put in each wells and slides were incubated during 30 min at 37° C. Then, 50 μL of EGM2-MV medium with our without NMDAR antagonists (100 μM (+)-MK-801 maleate or 50 μM DAP-V, both from ABCAM BIOCHEMICALS, Cambridge, UK) were added on matrigel gels during 1 hour. 3500 hPMVEC were seeded in each well in presence or absence of NMDAR antagonists. After 4 hours, bright-field images of capillary-like structures were captured using Eclipse 80i microscope coupled to Nis Elements BR2.30 software. Images were then automatically analyzed with “Angiogenesis analyzer” plugin for ImageJ software resulting in total tube length and total number of nodes determination.

hPMVEC [2] = assay: hPASMC/hPMVEC co-culture model of angiogenesis; conditions: hPMVECs and hPASMCs co-culture, 15 days, CD31 staining; 10 to 100 μM (FIG. 1h, FIG. 2g)
Method: For the hPASMC/hPMVEC co-culture model of angiogenesis, 20000 PASMC were seeded on glass coverslips in a 12-well plate (CORNING, Tewksbury, Mass., USA) and cultured until confluence in SmGm2 complete medium. […] Medium was changed every 2 to 3 days and after 15 days of co-culture, cells were fixed and CD31 was stained. After staining, 5×5 images of each coverslip were captured using mosaic mode of acquisition with a Zeiss Axio Observer Z1 microscope coupled to Axiovision 4.8 software (both from CARL ZEISS, Oberkochen, Germany). Images were analysed using ImageJ software in order to calculate the CD31 staining area to the total cell area ratio. This ratio was further named as the total tube length. Automatic quantitation was also achieved using AngioQuant software^70 to determine total tube length.

hPMVEC [3] = assay: hPMVEC proliferation (BrdU incorporation) stimulated by VEGF-A or FBS; conditions: for hPMVEC proliferation stimulated by FBS 10%: antagonist 10 μM to 100 μM, no exogenous NMDAR agonists (FIG. 2e); for hPMVEC proliferation stimulated by VEGF-A: VEGF-A 10 ng·ml^−1, antagonist 10 μM to 100 μM, no exogenous NMDAR agonists (FIG. 1f)
Method: FIG. 1: Activation of endothelial cell NMDAR contributes to vascular remodeling in the development of pulmonary hypertension. • (a) The table summarizes quantitation of total membrane GluN1 i.e NMDAR available for activation, in endothelial cells and also specifically in synaptic-like contact (defined as a close contact […] between two endothelial cells without junctions). A concentration index of GluN1 in the synaptic-like contacts was determined calculating the ratio of the percent of membrane GluN1 in these synaptic-like contacts divided by the percent of synaptic contact length. • (b) Quantitative RT-PCR analysis of GRIN1 gene expression from total RNA of CD31+ cells and CD31− cells isolated from the lungs of wild-type mice (n=4) and knocked-out mice (n=4) for the NMDAR in ECs showing efficiency of Grin1 knockout in ECs. Grin1 gene expression is normalized to Actinb gene expression. Values are normalized to those of WT mice. • (c) Right Ventricular Systolic Pressure (RVSP) measurement in wild-type (n=11-12) and knocked-out mice for the NMDAR in ECs (n=17-18) after 3 weeks of normoxia or chronic hypoxia (FiO2: 10%). • (d) Ratio of right ventricular weight to left ventricular plus septum weight (Fulton index) measured in wild-type (n=12) or knocked-out mice for the NMDAR in ECs (n=19-20) after 3 weeks of normoxia or chronic hypoxia (FiO2: 10%). Same experiment as in c). • (e) Morphometric analysis of pulmonary vessels in wild-type or knocked-out mice for the NMDAR in ECs after 3 weeks of normoxia or chronic hypoxia (FiO2: 10%). Same experiment as in c) and d). […] 100 vessels were analyzed for each group (20 vessels per group and per mice). […] On the left automatic quantification of total tube length and total number of nodes using the “Angiogenesis analyzer” plugin from ImageJ software on a total of 7-8 images (1 image/replicate, each image covering nearly all the well area). Values are expressed as percent of control. […] Statistical significance was determined by Mann Whitney test (b), regular two-way ANOVA followed by Bonferonni's test (c-e), one-way ANOVA followed by Bonferonni's multiple comparison test (f, h) or Student's t test (g). *p<0.05, ***p<0.001 compared to WT/control (b-e, g, h) or ^§§§ p<0.001 compared to control, *p<0.05, ***p<0.001 compared to VEGF (f). […]
FIG. 2: Supplementary figures about activation of endothelial cell NMDAR contributes to vascular remodeling in the development of pulmonary hypertension. • (a) Quantitation of total GluN1-associated immunogold particles per 100 μm^2 of endothelial cells in arteries from a control patient, and in an intimal lesion and plexiform lesion from a PAH patient. • (b) Genotyping of Tek-creXGrin1 mice. […]

hPASMCs = assay: hPASMC proliferation induced by PDGF-BB; conditions: PDGF-BB stimulation, no NMDAR agonist added to the medium
Method: For hPASMC culture, 250 000 cells were seeded in T75 flasks (BD Falcon, CORNING, Tewksbury, Mass., USA) and grown in the SmGm2 complete medium containing SmBm basal medium and also basic fibroblast growth factor, epidermal growth factor, insulin and gentamycin/amphotericin 1× (all from LONZA, Basel, Switzerland).
As proliferation of hPASMCs is a crucial determinant of vascular remodeling associated to increased pulmonary vascular resistance and pressure, we analyzed the role of NMDAR activation in hPASMCs proliferation. […] Thus, we explored the potential of PDGF-BB to phosphorylate GluN1 in hPASMCs on Ser896, a site phosphorylated in pulmonary arteries of PAH patients.

SMILES | number of nodes (hPMVEC [1]) | total tube length formation (hPMVEC [1]) | formation of the endothelial tube network (hPMVEC [2]) | hPMVEC proliferation stimulated by FBS 10% (hPMVEC [3]) | hPMVEC proliferation stimulated by VEGF-A (hPMVEC [3]) | hPASMCs proliferation induced by PDGF-BB (hPASMCs)
N[C@H](CCCP(=O)(O)O)C(=O)O [DAP-5, 2-amino-5-phosphonopentanoïc acid] | decrease | decrease |  |  |  | 
C[C@@]12N[C@@H](Cc3ccccc31)c1ccccc12 [MK-801, [5R,10S]-[+]-5-methyl-10,11-dihydro-5H-dibenzo[a,d]cyclohepten-5,10-imine] | decrease | decrease | dose-dependently inhibits | dose-dependently inhibit | dose-dependently inhibit | 
CC12CC3CC(C)(C1)CC(N)(C3)C2 [memantine, 3,5-dimethyladamantan-1-amine] |  |  |  | dose-dependently inhibit | dose-dependently inhibit | dose-dependent inhibition
